# Results: PMC11589458, “Development of bombesin-tubulysin conjugates using multicomponent chemistry to functionalize both the payload and the homing peptide” (Frontiers in Pharmacology, 2024)
# Like-named read-outs stand apart in the source and are kept apart here. Peptide text beside a SMILES is read from it. * marks the point of attachment. X1 = CCCO[C@H](C[C@H](C(C)C)N(CC(=O)NCCC(C)(C)SSCCC(=O)*)C(=O)[C@@H](NC(=O)[C@H]1CCCCN1C)[C@@H](C)CC)c1nc(C(=O)N[C@@H](Cc2ccccc2)C[C@H](C)C(=O)O)cs1; X2 = CCCO[C@H](C[C@H](C(C)C)N(CC(=O)NCCSSCCC(=O)*)C(=O)[C@@H](NC(=O)[C@H]1CCCCN1C)[C@@H](C)CC)c1nc(C(=O)N[C@@H](Cc2ccccc2)C[C@H](C)C(=O)O)cs1
# Experiments:
# [1] = tested on: PC-3 (prostate cancer) cells; format: cell-based, human; conditions: 6 h
# Procedure: (§1) [formula] Scheme 1 (A) Solid-phase synthesis of tubugi analogs functionalized with a thiol group at the internal amide N-substituent. WR = Wang resin. (B) Evaluation of the anti-proliferative activity: tubugi effects on cell viability, as determined by a resazurin assay for human prostate cancer PC-3 cells and human colon cancer HCT-116 cells treated for 48 h with tubugi 10a (red dots and line) and tubugi 10b (blue triangles and line). For control and data normalization, cells were routinely treated in parallel with 0.5% (v/v) DMSO (negative control), and as a positive cytotoxicity control with 100 µM digitonin (for data normalization set to 0% cell viability), both in standard growth medium.
# (§2) The actual GRPR expression levels of these cell lines were checked by conducting RT-qPCR, as described in the SI. […] The cell viability and proliferation assays were carried out by using a resazurin-based fluorometric assay. The cells were exposed to the bombesin conjugates 20, 21, and 22 for initial 6 h and 48 h, and regardless of the initial incubation time, the cells were then allowed to grow until 72 h in sum were finalized, after which the cell viability was determined (see the SI).
# FIGURE 2 (A) Relative human GRPR (mRNA) expression levels in the cell lines used for the flow cytometry and cell viability studies, as detected by using RT-qPCR (n = 3). Data were analyzed by conducting the ΔΔCt methodology using GAPDH as a reference gene and normalized to the GRPR expression level of non-cancerous MCF-10A breast cells as a “healthy” cell reference (set to 1.0). […] (B–D) Cell viability of human cancer (T-47D, PC-3, MDA-MB-231, and HCT-116) and non-cancer (MCF-10A) cell lines after 6 h initial treatment with the bombesin-tubugi conjugates 20 (normal disulfide), 21 (hindered disulfide), and 22 (hindered disulfide and lipidated), medium exchange and subsequent cell cultivation until finalization of 72 h, and subsequent measurement by using fluorometric resazurin assay read-out. […] Each data point was determined with 3-4 biological replicates, each with technical triplicates. […]
# MDA-MB-231 (TNBC) cells = format: cell-based, human; conditions: 6 h
# Procedure: as §2
# (§3) FIGURE 2 (A) Relative human GRPR (mRNA) expression levels in the cell lines used for the flow cytometry and cell viability studies, as detected by using RT-qPCR (n = 3). Data were analyzed by conducting the ΔΔCt methodology using GAPDH as a reference gene and normalized to the GRPR expression level of non-cancerous MCF-10A breast cells as a “healthy” cell reference (set to 1.0). Statistical significance was tested by using an unpaired t-test (*p < 0.05). (B–D) Cell viability of human cancer (T-47D, PC-3, MDA-MB-231, and HCT-116) and non-cancer (MCF-10A) cell lines after 6 h initial treatment with the bombesin-tubugi conjugates 20 (normal disulfide), 21 (hindered disulfide), and 22 (hindered disulfide and lipidated), medium exchange and subsequent cell cultivation until finalization of 72 h, and subsequent measurement by using fluorometric resazurin assay read-out. For control and data normalization, cells were routinely treated in parallel with 0.5% (v/v) DMSO (negative control), and as a positive cytotoxicity control with 100 µM digitonin (for data normalization set to 0% cell viability), both in standard growth medium. Each data point was determined with 3-4 biological replicates, each with technical triplicates. The indicated concentrations are IC50 values as calculated based on the non-linear regression dose-response curves as drawn by using GraphPad Prism 8 software. Error bars indicate the 95% confidence interval. TEXT PRINTED IN THE PICTURE: (B) 20: T-47D (HR+ breast cancer) 594.2 nM (95% CI: 475.2 - n.d. nM); PC-3 (prostate cancer) 695.3 nM (95% CI: 595.6 - n.d. nM); MDA-MB-231 (TNBC) 626.8 nM (95% CI: 430.4 - n.d. nM); HCT-116 (colon cancer) 1,315 nM (95% CI: n.d. - 6,114 nM); MCF-10A (healthy breast) ~ 3,200 nM (95% CI: n.d.) | (C) 21: T-47D (HR+ breast cancer) 740.9 nM (95% CI: 598.2 - 950.1 nM); PC-3 (prostate cancer) 716.4 nM (95% CI: 529.4 - 997.2 nM); MDA-MB-231 (TNBC) 357.0 nM (95% CI: n.d. - 606.4 nM); HCT-116 (colon cancer) ~ 2,000 nM (95% CI: n.d.); MCF-10A (healthy breast) ~ 4,000 nM (95% CI: n.d.) | (D) 22: T-47D (HR+ breast cancer) 70.9 nM (95% CI: 39.3 - 122.4 nM); PC-3 (prostate cancer) 110.7 nM (95% CI: 66.4 - 116.8 nM); MDA-MB-231 (TNBC) 87.8 nM (95% CI: 83.3 - 148.4 nM) […]
# (§4) Figure S50. Cell viability of human cancer (T-47D, PC-3, MDA-MB-231) and non-cancer (184B5) cell lines after 6 h initial treatment with the bombesin-tubugi conjugate 22 and its non-conjugated tubugi payload 10b, medium exchange and subsequent cell cultivation until finalization of 72 h, and subsequent measurement by using fluorometric resazurin assay read-out. Each data point was determined in at least 3-4 biological replicates each with technical triplicates. The indicated concentrations are IC50 values as calculated based on the non-linear regression dose-response curves as drawn by using GraphPad Prism 8 software. Error bars indicate the 95% confidence interval.
# (§5) (1 picture or pasted object on this page, not shown here)
# [2] = tested on: HCT-116 (colon cancer) cells; assay: Resazurin cell viability / anti-proliferation assay, HCT-116; format: cell-based, human; conditions: for fold higher IC50 in GRPR-lower expressing HCT-116 than in higher GRPR-expressing cancer cells: compared with T-47D (20) or T-47D and PC-3 (21); for IC50: HCT-116
# Procedure: as §1, §2
# (§6) FIGURE 2 (A) Relative human GRPR (mRNA) expression levels in the cell lines used for the flow cytometry and cell viability studies, as detected by using RT-qPCR (n = 3). Data were analyzed by conducting the ΔΔCt methodology using GAPDH as a reference gene and normalized to the GRPR expression level of non-cancerous MCF-10A breast cells as a “healthy” cell reference (set to 1.0). Statistical significance was tested by using an unpaired t-test (*p < 0.05). (B–D) Cell viability of human cancer (T-47D, PC-3, MDA-MB-231, and HCT-116) and non-cancer (MCF-10A) cell lines after 6 h initial treatment with the bombesin-tubugi conjugates 20 (normal disulfide), 21 (hindered disulfide), and 22 (hindered disulfide and lipidated), medium exchange and subsequent cell cultivation until finalization of 72 h, and subsequent measurement by using fluorometric resazurin assay read-out. For control and data normalization, cells were routinely treated in parallel with 0.5% (v/v) DMSO (negative control), and as a positive cytotoxicity control with 100 µM digitonin (for data normalization set to 0% cell viability), both in standard growth medium. Each data point was determined with 3-4 biological replicates, each with technical triplicates. The indicated concentrations are IC50 values as calculated based on the non-linear regression dose-response curves as drawn by using GraphPad Prism 8 software. Error bars indicate the 95% confidence interval. TEXT PRINTED IN THE PICTURE: (B) 20: T-47D (HR+ breast cancer) 594.2 nM (95% CI: 475.2 - n.d. nM); PC-3 (prostate cancer) 695.3 nM (95% CI: 595.6 - n.d. nM); MDA-MB-231 (TNBC) 626.8 nM (95% CI: 430.4 - n.d. nM); HCT-116 (colon cancer) 1,315 nM (95% CI: n.d. - 6,114 nM); MCF-10A (healthy breast) ~ 3,200 nM (95% CI: n.d.) | (C) 21: T-47D (HR+ breast cancer) 740.9 nM (95% CI: 598.2 - 950.1 nM); PC-3 (prostate cancer) 716.4 nM (95% CI: 529.4 - 997.2 nM); MDA-MB-231 (TNBC) 357.0 nM (95% CI: n.d. - 606.4 nM); HCT-116 (colon cancer) ~ 2,000 nM (95% CI: n.d.); MCF-10A (healthy breast) ~ 4,000 nM (95% CI: n.d.) | (D) 22: T-47D (HR+ breast cancer) 70.9 nM (95% CI: 39.3 - 122.4 nM); PC-3 (prostate cancer) 110.7 nM (95% CI: 66.4 - 116.8 nM); MDA-MB-231 (TNBC) 87.8 nM (95% CI: 83.3 - 148.4 nM)
# [3] = tested on: MCF-10A (non-cancer, healthy breast epithelium) cells; assay: Resazurin cell viability assay, MCF-10A; format: cell-based, human; conditions: for fold higher IC50 in GRPR-lowest expressing healthy MCF-10A than in higher GRPR-expressing cancer cells: compared with T-47D (20) or T-47D and PC-3 (21); for IC50: MCF-10A
# Procedure: as §2, §6
# [4] = tested on: T-47D (HR+ breast cancer) cells; format: cell-based, human; conditions: 6 h
# Procedure: as §2, §3, §4, §5
# [5] = Resazurin cell viability assay, the three GRPR-overexpressing cancer cell lines taken together; format: cell-based, human; conditions: 6 h initial treatment; read-out: selectivity: fold higher cytotoxicity for GRPR-overexpressing cells than for healthy 184B5 cells
# [6] = tested on: T-47D, PC-3 and MDA-MB-231 cells; assay: as above; format: cell-based, human; conditions: 6 h initial treatment
# [7] = tested on: 184B5 (healthy breast) cells; conditions: 6 h
# [8] = 6 h initial treatment, medium exchange, cultivation until 72 h, fluorometric resazurin read-out, 3-4 biological replicates, technical triplicates, read-out: IC50
# [9] = 6 h initial treatment, read-out: IC50
SMILES,IC50 [1] [nM],IC50 (MDA-MB-231 (TNBC) cells) [nM],fold higher IC50 in GRPR-lower expressing HCT-116 than in higher GRPR-expressing cancer cells ([2]; 6 h initial treatment),"IC50 [2, 8] [nM]","IC50 [2, 9] [nM]",IC50 ([2]; 48 h initial treatment),fold higher IC50 in GRPR-lowest expressing healthy MCF-10A than in higher GRPR-expressing cancer cells ([3]; 6 h initial treatment) [fold],"IC50 [3, 9] [nM]",IC50 ([3]; 48 h initial treatment),IC50 [4] [nM],"IC50 [3, 8] [nM]",selectivity ratio [5],"IC50 ([6]; T-47D, PC-3, MDA-MB-231, read-out: IC50 (range over cell lines)) [nM]",fold more potent than the non-lipidated conjugates 20 and 21 ([6]; three cancer cells overexpressing the GRPR),IC50 [7] [nM]
CCCO[C@H](C[C@H](C(C)C)N(CC(=O)NCCSSCCC(=O)NCCCC[C@H](N)C(=O)N[C@@H](CC(N)=O)C(=O)N[C@@H](CCC(N)=O)C(=O)N[C@@H](Cc1c[nH]c2ccccc12)C(=O)N[C@@H](C)C(=O)N[C@H](C(=O)NCC(=O)N[C@@H](Cc1c[nH]cn1)C(=O)N[C@@H](CC(C)C)C(=O)N[C@@H](CCSC)C(N)=O)C(C)C)C(=O)[C@@H](NC(=O)[C@H]1CCCCN1C)[C@@H](C)CC)c1nc(C(=O)N[C@@H](Cc2ccccc2)C[C@H](C)C(=O)O)cs1 [compound 20] (H-K(X2)NQWAVGHLM-NH2),695,627,approximately 2 fold,1320,~1300,nanomolar range,~5.5,~3200,nanomolar range,,,,,,
CCCO[C@H](C[C@H](C(C)C)N(CC(=O)NCCC(C)(C)SSCCC(=O)NCCCC[C@H](N)C(=O)N[C@@H](CC(N)=O)C(=O)N[C@@H](CCC(N)=O)C(=O)N[C@@H](Cc1c[nH]c2ccccc12)C(=O)N[C@@H](C)C(=O)N[C@H](C(=O)NCC(=O)N[C@@H](Cc1c[nH]cn1)C(=O)N[C@@H](CC(C)C)C(=O)N[C@@H](CCSC)C(N)=O)C(C)C)C(=O)[C@@H](NC(=O)[C@H]1CCCCN1C)[C@@H](C)CC)c1nc(C(=O)N[C@@H](Cc2ccccc2)C[C@H](C)C(=O)O)cs1 [compound 21] (H-K(X1)NQWAVGHLM-NH2),716,357,approximately 2.5 fold,~2000,,nanomolar range,~5.5,,nanomolar range,741,~4000,,,,
CCCCCCCCCCCCCCNC(=O)CN(CCCC[C@H](N)C(=O)N[C@@H](CC(N)=O)C(=O)N[C@@H](CCC(N)=O)C(=O)N[C@@H](Cc1c[nH]c2ccccc12)C(=O)N[C@@H](C)C(=O)N[C@H](C(=O)NCC(=O)N[C@@H](Cc1c[nH]cn1)C(=O)N[C@@H](CC(C)C)C(=O)N[C@@H](CCSC)C(N)=O)C(C)C)C(=O)CCSSC(C)(C)CCNC(=O)CN(C(=O)[C@@H](NC(=O)[C@H]1CCCCN1C)[C@@H](C)CC)[C@H](C[C@@H](OCCC)c1nc(C(=O)N[C@@H](Cc2ccccc2)C[C@H](C)C(=O)O)cs1)C(C)C [compound 22],111,87.8,,,,,,,,70.9,,3.5 to 5.5,70 to 110,4- to 10 fold,392
